Data from US12486253B2, “Therapeutics for the degradation of mutant BRAF” (C4 THERAPEUTICS, INC., priority 2021, dated 2025).
Like-named read-outs stand apart in the source and are kept apart here.

Key:
BRAF V600E [1] = target: T1, BRAF V600E (Homo sapiens, UniProt P15056, V600E); test: HiBiT cellular BRAF^V600E degradation assay; format: cell-based
A375 cells [2] = test: A375 cell growth (GI50); format: cell-based; details: Homo sapiens, A-375, at 96 hr
GSPT1 = target: T2, GSPT1 (Homo sapiens, UniProt P15170); test: GSPT1 protein levels after treatment; format: cell-based; details: various concentrations
T2 construct: endogenously expressing GSPT1 with HiBiT fusion tag via CRISPR; endogenous in cells; host or cells: HEK293T.114

SALL4 = target: T3, SALL4 (Homo sapiens, UniProt Q9UJQ4); test: SALL4 protein levels after treatment; format: cell-based; details: various concentrations
T3 construct: endogenously expressing SALL4 with HiBiT fusion tag via CRISPR; endogenous in cells; host or cells: KELLY.2 (from KELLY, DSMZ ACC-No. 355)

BRAF V600E [3] = target: T1, BRAF V600E; test: Western blot of engineered HEK-293T cells expressing BRAF V600E; format: cell-based; details: lentivirus expression
[4] = target: T4, BRAF class III mutant G466V (Homo sapiens, UniProt P15056, G466V); test: Western blot of engineered HEK-293T cells expressing class III mutant G466V; format: cell-based; details: lentivirus expression
T4 construct: host or cells: HEK-293T, lentiviral expression

A375 cells [5] = test: Cellular confluence of A375 cells by live cell imaging; format: cell-based; details: end of the 7-day experiment
A375 cells [6] = test: CellTiter-Glo cell growth inhibition, A375 cells; format: cell-based; details: Homo sapiens, A-375, 72 hr, mean of at least n = 3
Protocol: A375 cell viability was determined based on quantification of ATP using CellTiter-Glo® 2.0 luminescent Assay kit, which signals the presence of metabolically-active cells. Briefly, test compound was added to 384-well plates at a top concentration of 10 μM with 14 points, half log titration in duplicates. A375 cells were seeded into the 384-well plates in DMEM medium containing 10% FBS at a cell density of 250 cells per well. Cells treated in the absence of the test compound were the negative control, normalized to 100% viability, and cells treated in the absence of CellTiter-Glo® 2.0 were the positive control, normalized to 0% viability. A375 cells were incubated at 37° C. with 5% CO2 for 72 hr. CellTiter-Glo reagent was then added to the cells and Luminescence was acquired on EnVision™ Multilabel Reader (PerkinElmer, Santa Clara, CA, USA).

phospho-ERK (T202/Y204) = test: HTRF phospho-ERK (T202/Y204) assay in A375-NRAS^Q61K cells; format: cell-based; details: 24 hrs, mean of at least n = 3, read-out: pERK IC50
Source text: A375-NRAS^Q61K cells (harboring BRAF homozygous V600E mutation and NRAS homozygous Q61K mutation) were purchased from ATCC. DMEM Medium without phenol red and supplemented with L-glutamine was purchased from Corning (Corning, NY, USA). Advanced phospho-ERK (Thr202/Tyr204) HTRF assay kits were purchased from Cisbio (Bedford, MA, USA). Cell culture flasks and 384-well microplates were acquired from VWR (Radnor, PA, USA) or Corning (Corning, NY, USA).
Degradation of activated phospho-ERK (T202/Y204) protein was determined based on quantification of FRET signal using the Advanced phospho-ERK (T202/Y204) HTRF assay kit. Test compounds were added to the 384-well plate from a top concentration of 10 μM with 11 points, half log titration in duplicates. A375-NRAS^Q61K cells were added into 384-well plates at a cell density of 2000 cells per well. The plates were kept at 37° C. with 5% CO2 for 24 hours. Cells treated in the absence of the test compound were the negative control. Positive control was set by wells containing all reagents but no cells. FRET signal was acquired on EnVision™ Multilabel Reader (PerkinElmer, Santa Clara, CA, USA).

[7] = Body weight change in the A375 xenograft study; format: in vivo, BALB/c nude mice; details: all doses, PO, A375 tumor-bearing mice
Protocol: The efficacy study was conducted in female BALB/c nude mice bearing A375 tumors. Female BALB/c nude mice were inoculated subcutaneously in the right flank with A375 tumor cells (5×10^6) in 0.2 mL of PBS supplemented with Matrigel (at a 1:1 ratio) for tumor development. Tumor volume was measured twice weekly in two dimensions using calipers, and volume (mm^3) was calculated using the formula: V=0.5 a×b^2 where a and b are the long and short diameters of the tumor in mm, respectively. Once the tumors reached an average tumor volume of 246 mm^3 (16 days after implantation), the animals were divided randomly into groups of 6, stratified to result in about equal average tumor sizes in each treatment group and treatment began on Day 0.
All agents were administered to mice bearing A375 tumors orally (PO), daily (QD; encorafenib), twice a day (BID) or three times a day (TID) for Compound 157, for 21 or 35 days. encorafenib was dosed at 35 mg/kg and Compound 157 at 0.1, 0.3, 1, 3 or 10 mg/kg twice a day or 2 mg/kg three times a day. Compound 157 was formulated in 20% PEG400+80% (25% SBECD). Body weight and MTV were measured on a 2× weekly schedule and reported as Mean±SEM.

T1 sequence (P15056 whole entry V600E): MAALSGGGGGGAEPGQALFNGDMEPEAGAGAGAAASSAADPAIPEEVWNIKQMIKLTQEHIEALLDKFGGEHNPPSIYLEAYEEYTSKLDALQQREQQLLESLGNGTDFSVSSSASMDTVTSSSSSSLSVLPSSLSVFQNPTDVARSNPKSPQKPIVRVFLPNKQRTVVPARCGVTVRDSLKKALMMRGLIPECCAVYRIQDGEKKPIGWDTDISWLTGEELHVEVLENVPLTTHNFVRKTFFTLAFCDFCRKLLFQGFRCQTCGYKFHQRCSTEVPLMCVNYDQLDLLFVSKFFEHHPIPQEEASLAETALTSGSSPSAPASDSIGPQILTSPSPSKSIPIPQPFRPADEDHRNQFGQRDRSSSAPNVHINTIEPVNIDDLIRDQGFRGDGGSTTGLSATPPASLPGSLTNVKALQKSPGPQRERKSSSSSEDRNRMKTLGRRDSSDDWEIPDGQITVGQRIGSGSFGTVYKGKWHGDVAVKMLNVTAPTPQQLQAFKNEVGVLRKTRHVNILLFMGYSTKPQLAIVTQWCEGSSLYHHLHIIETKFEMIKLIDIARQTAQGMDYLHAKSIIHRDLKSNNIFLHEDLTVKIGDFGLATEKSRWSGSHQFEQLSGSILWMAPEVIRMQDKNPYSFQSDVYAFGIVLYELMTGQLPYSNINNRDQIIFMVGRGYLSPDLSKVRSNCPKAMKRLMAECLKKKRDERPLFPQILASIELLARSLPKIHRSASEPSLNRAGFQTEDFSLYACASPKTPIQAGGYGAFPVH
T3 sequence (Q9UJQ4 whole entry, the tested form may be a part): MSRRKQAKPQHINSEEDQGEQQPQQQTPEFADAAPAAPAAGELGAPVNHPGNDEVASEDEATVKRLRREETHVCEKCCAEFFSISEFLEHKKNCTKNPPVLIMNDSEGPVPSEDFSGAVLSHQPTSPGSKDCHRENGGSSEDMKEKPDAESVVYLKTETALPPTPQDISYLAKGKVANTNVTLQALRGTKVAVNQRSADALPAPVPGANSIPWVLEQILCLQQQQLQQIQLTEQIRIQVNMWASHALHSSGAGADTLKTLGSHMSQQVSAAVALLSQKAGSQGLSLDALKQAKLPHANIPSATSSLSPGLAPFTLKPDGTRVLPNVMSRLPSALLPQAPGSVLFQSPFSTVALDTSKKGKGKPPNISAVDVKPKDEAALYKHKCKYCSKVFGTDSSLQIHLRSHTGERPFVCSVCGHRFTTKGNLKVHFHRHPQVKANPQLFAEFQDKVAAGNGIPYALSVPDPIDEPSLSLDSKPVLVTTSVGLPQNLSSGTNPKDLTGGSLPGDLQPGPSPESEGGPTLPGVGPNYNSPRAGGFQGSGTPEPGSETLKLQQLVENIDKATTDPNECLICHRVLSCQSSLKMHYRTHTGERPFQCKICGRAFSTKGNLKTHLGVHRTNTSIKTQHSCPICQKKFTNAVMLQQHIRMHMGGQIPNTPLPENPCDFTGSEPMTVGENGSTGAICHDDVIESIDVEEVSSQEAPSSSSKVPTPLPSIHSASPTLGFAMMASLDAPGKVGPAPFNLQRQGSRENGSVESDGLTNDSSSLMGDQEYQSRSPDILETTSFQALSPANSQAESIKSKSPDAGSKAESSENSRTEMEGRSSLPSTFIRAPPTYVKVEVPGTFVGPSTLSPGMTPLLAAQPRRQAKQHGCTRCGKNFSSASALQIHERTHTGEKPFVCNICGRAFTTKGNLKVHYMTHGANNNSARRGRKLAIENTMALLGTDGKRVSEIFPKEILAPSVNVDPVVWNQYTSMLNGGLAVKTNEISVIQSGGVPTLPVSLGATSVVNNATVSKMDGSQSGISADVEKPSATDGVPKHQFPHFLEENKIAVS
T4 sequence (P15056 whole entry G466V): as the sequence (P15056 whole entry V600E) above, with G466V, E600V counted along it
T2 sequence (P15170 whole entry, the tested form may be a part): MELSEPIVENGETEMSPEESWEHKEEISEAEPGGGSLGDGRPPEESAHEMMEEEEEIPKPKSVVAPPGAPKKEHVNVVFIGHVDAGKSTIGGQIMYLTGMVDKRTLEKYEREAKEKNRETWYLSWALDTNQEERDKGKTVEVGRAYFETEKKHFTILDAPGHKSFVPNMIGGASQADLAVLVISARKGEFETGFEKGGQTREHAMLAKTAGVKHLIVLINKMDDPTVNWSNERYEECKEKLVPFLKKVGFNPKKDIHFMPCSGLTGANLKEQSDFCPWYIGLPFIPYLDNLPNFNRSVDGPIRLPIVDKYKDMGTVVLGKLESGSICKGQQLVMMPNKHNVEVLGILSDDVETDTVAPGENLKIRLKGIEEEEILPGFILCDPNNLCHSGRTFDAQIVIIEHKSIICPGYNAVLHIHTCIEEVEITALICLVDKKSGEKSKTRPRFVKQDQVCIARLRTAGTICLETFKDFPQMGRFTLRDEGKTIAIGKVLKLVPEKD

CCN(C)S(=O)(=O)Nc1ccc(F)c(Oc2ccc3ncn([C@H]4COC5(CCN(C(=O)CC6(O)CCN(c7cc8c(cc7F)c(N7CCC(=O)NC7=O)nn8C)CC6)CC5)C4)c(=O)c3c2)c1C#N [Compound 157, (3R)-3-[6-[2-cyano-3-[[ethyl(methyl)sulfamoyl]amino]-6-fluorophenoxy]-4-oxoquinazolin-3-yl]-8-[2-[1-[3-(2,4-dioxo-1,3-diazinan-1-yl)-5-fluoro-1-methylindazol-6-yl]-4-hydroxypiperidin-4-yl]acetyl]-1-oxa-8-azaspiro[4.5]decane]
BRAF protein degraded (BRAF V600E [1]): 74%
HiBit 24 h Emax (BRAF V600E [1]): 27.48%
Emax (BRAF V600E [1]; A-375, read-out: Emax BRAF^V600E degradation): 26%
Emax (BRAF V600E [1]; read-out: HiBit 24 h Emax): ~25%
GI50 (A375 cells [2]): 94 nM
GSPT1 protein levels (GSPT1): steady
SALL4 protein levels (SALL4): steady
degradation of BRAF V600E (BRAF V600E [3]): capable of degrading
degradation of class III mutant G466V [4]: capable of degrading
cellular confluence (A375 cells [5]): ~20%
GI50 (A375 cells [6]): 9.3 nM
IC50 (phospho-ERK (T202/Y204)): 7.8 nM
Mean body weight loss throughout the study [7]: ≤ 3.5%
